Laboratory results taken from patent US6096529A, “Recombinant α-2,3-sialyltransferases and their uses” (priority 1997, dated 2000).

Columns and labels:
Type in all cases: biochemical
[1] = molecular target: T1, N. meningitidis α-2,3-sialyltransferase (Neisseria meningitidis serogroup B, UniProt P72097); test: Coupled sialylation of FCHASE-LacNAc with Neu5Ac, Neu5Pr or Neu5Gc and CMP-Neu5Ac synthetase; parameters: made in house; host or cells: E. coli BMH71-18/pNST-18; conditions: for use as alternate donor, rate: compared with Neu5Ac; for time to complete conversion of the acceptor (FCHASE-LacNAc): coupled reaction with CMP-Neu5Ac synthetase
Protocol: Sialylation of FCHASE-thio-N-acetyllactosamine with N-acetyl-, N-propionyl and N-glycolyl-Neuraminic Acid--The 50 μL reaction mixtures included […] acceptor, and 2 mM of either Neu5Ac, Neu5Gc or Neu5Pr, in 100 mM Tris pH 7.5. 0.2 mM DTT, 10 mM MgCl2, […], with 50 mU inorganic pyrophosphatase (Sigma). 47 mU CMP-Neu5Ac synthetase, 5 mU purified α-2,3-sialyl-transferase. […] The masses of the sialylated products were measured in the negative ion mode on a VG Quattro triple quadrupole mass spectrometer (Fisons Instruments).
Target sequence in this assay (P72097 2-371): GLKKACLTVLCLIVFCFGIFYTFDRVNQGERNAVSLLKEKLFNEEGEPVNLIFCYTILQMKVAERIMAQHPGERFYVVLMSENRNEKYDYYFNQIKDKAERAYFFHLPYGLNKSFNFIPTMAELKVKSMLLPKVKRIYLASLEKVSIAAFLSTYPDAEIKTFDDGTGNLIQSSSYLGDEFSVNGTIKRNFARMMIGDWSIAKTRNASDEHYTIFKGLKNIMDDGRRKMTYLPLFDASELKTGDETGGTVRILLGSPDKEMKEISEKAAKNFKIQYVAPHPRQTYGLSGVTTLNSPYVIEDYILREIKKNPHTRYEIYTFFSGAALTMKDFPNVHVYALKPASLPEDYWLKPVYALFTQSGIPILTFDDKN

[2] = molecular target: T2, purified recombinant α-2,3-sialyltransferase (Neisseria meningitidis serogroup B, UniProt P72097); test: Enzymatic properties of the purified recombinant α-2,3-sialyltransferase (standard assay); conditions: for inhibition at 1000 µM: 1 mM, standard assay; for activity stimulated by presence: 20 mM
T2 construct: made in house; host or cells: E. coli BMH71-18/pNST-18
Protocol: (§1) Measurement of Sialyltransferase Activity and Survey of Oligosaccharide Acceptors--FCHASE-labelled oligosaccharides were prepared as described above, while the APTS-labelled oligosaccharides were prepared by reductive amination of reducing saccharides according to the method described by Guttman et at. (Anal. Biochem233:234 (1996)) The Gal-β-APTS acceptor was derived from labelling of lactose; the Gal-α-APTS acceptor was derived from labelling of melibiose; the N-acetyllactosamine (LacNAc) acceptor was synthesized by APTS labelling of chitobiose, followed by enzymatic modification with bovine β-Galactosyl transferase to produce the LacNAc moiety-, the Gal-α-1.4-Gal-β acceptor was enzymatically synthesized from β-Gal-APTS with the α-1,4-galactosyltransferase from N. meningitidis. All of the reductive amination products were purified by gel permeation chromatography on Toyopearl HW4OF (Sigma-Aldrich), 1.5 cm×15 cm column, using water as the eluant. It should be mentioned that all of these molecules have the terminal reducing sugar ring opened in the process of labelling. APTS-saccharides were quantitated by measuring the A455, and using an extinction coefficient of 17160 M^-1 cm^-1 . The TMR-labelled oligosaccharides were prepared as described by Zhao et al. (1994) Glycobiology 4:239-242. For the TMR labelled acceptors we used an extinction coefficient of 80,000 M^-1 cm^-1 for quantitation. The sialyltransferase activity was routinely measured using 0.5 mM FCHASE-N-acetyllactosamine as the acceptor and the assay conditions as described above. For measurement of Km, and kcat values, assays were performed with the APTS labelled saccharides at room temperature. Assays were monitored so that for all acceptor concentrations, no more than 10% conversion to product occurred. The ranges of acceptor and donor concentrations were determined empirically, then a range spanning 0.2Km, up to 5Km, was used to obtain the values. Data were examined using the Grafit™3.0 software package (Erithacus Software, London, UK).
(§2) The reaction mixtures from the FCHASE- and APTS-labelled acceptors were analyzed by capillary electrophoresis performed with a Beckman instruments (Fullerton, Calif.) P/ACE 5510 equipped with a 3 mW Argon-ion laser induced fluorescence detector, λ excitation=488 nm λ emission=520 nm. The Capillary was of bare silica 75 μ X 57 cm, with the detector at 50 cm. The capillary was conditioned before each run by washing with 0.2 M NaOH for 2 min., water for 2 min., and either 20 mM sodium phosphate buffer, pH 7.4 or sodium tetraborate, pH 9.3, 2 min. Samples were introduced by pressure injection for 2-5 seconds, and the separation was performed at 18 kV, 75 μA. Peak integration was performed with the Beckman PACE-Station software (version 1).

[3] = molecular target: T1, N. meningitidis α-2,3-sialyltransferase; parameters: b112 rows possibly recombinant MC58 lst (pNST-01) in E. coli extracts; conditions: for ratios of activity as acceptor: synthetic saccharide acceptors, relative to FCHASE-aminophenyl-LacNAc; for activity stimulated by addition: 10 mM, enzyme from N. meningitidis extracts
Protocol: Measurement of Sialyltransfrase Activity--The sialyltransferase activity from N. meningitidis MC58L3, 406Y L3 and M982B L7, and the E. coli carrying pNST plasmids was measured in toluene treated cells or cell free extracts prepared as described previously (Wakarchuk, et al. (1996) J. Biol. Chem. in Press) acceptors were derived from aminophenylglycosides reacted with 6(5-fluorescein-carboxamnido)-hexanoic acid succimidyl ester (FCHASE) and were prepared as previously described (Wakarchuk, et al. (1996) J. Biol. Chem. in Press). Reactions for the enzyme were performed at 37° C. in 20 μl of MES buffer, 50 mM pH 6.0, 10 mM MnCl2, with 0.2 or 1.0 mM labeled acceptor, 0.2 mM CMP-Neu5Ac donor and various amounts of enzyme, either from crude bacterial extracts, or extracts of recombinant E. coli with the cloned gene. The recombinant enzymes were assayed for 10-120 minutes, while extracts from N. meningitidis were incubated 1-15 h. The reactions were terminated by diluting the reaction 1:100 with 10 mM NaOH. These samples were then diluted appropriately in water prior to analysis by capillary electrophoresis.
Capillary electrophoresis (CE) and was performed with a Beckman (Fullerton, Calif.) P/ACE 5510 equipped with a 3 mW Argon-ion laser induced fluorescence detector, λ excitation=488 nm, λ emission=520 nm. The capillary was bare silica 75 μ X 47 cm, with the detector at 40 cm. The capillary was conditioned before each run by washing with 0.2 M NaOH for 2 min., water for 2 min., and 25 mM sodium tetraborate pH 9.4 for 2 min. Samples were introduced by pressure injection for 2-5 seconds, and the separation was performed at 15 kV, 75 μA. Peak integration was performed with the Beckman System Gold (version 8.1) software.
Target sequence in this assay (P72097 whole entry Q29H/E40D/N94K/T242A/K273N): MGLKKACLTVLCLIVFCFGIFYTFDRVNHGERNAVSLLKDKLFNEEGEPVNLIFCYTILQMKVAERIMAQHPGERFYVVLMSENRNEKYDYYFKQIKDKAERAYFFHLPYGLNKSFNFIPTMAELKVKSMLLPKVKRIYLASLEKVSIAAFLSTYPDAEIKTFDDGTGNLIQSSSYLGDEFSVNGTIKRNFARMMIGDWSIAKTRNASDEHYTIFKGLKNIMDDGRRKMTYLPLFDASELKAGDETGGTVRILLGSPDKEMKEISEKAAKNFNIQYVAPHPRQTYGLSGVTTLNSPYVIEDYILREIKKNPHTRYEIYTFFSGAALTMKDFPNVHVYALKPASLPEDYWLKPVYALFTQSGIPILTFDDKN

[4] = molecular target: T2, purified recombinant α-2,3-sialyltransferase; test: Determination of kinetic constants with APTS-labelled acceptors; conditions: for kcat IKm: apparent, APTS-labelled acceptor, CMP-Neu5Ac 200 μM
Protocol: as §1, §2

[5] = molecular target: T2, purified recombinant α-2,3-sialyltransferase; test: Survey of oligosaccharide acceptors (qualitative, CE or TLC)
Protocol: Measurement of Sialyltransferase Activity and Survey of Oligosaccharide Acceptors--FCHASE-labelled oligosaccharides were prepared as described above, while the APTS-labelled oligosaccharides were prepared by reductive amination of reducing saccharides according to the method described by Guttman et at. […] APTS-saccharides were quantitated by measuring the A455, and using an extinction coefficient of 17160 M^-1 cm^-1 . […] For the TMR labelled acceptors we used an extinction coefficient of 80,000 M^-1 cm^-1 for quantitation. The sialyltransferase activity was routinely measured using 0.5 mM FCHASE-N-acetyllactosamine as the acceptor and the assay conditions as described above. […] Assays were monitored so that for all acceptor concentrations, no more than 10% conversion to product occurred. The ranges of acceptor and donor concentrations were determined empirically, then a range spanning 0.2Km, up to 5Km, was used to obtain the values. […]
The reaction mixtures from the FCHASE- and APTS-labelled acceptors were analyzed by capillary electrophoresis performed with a Beckman instruments (Fullerton, Calif.) P/ACE 5510 equipped with a 3 mW Argon-ion laser induced fluorescence detector, λ excitation=488 nm λ emission=520 nm. […]

T2 sequence (P72097 2-371): as the sequence (P72097 2-371) above

For `O=C(CO)N[C@H]1[C@H]([C@H](O)[C@H](O)CO)OC(O)(C(=O)O)C[C@@H]1O` (some centres unmarked) [Neu5Gc, 5-N-glcolylneuraminic acid], the “conversion of the acceptor” value ([1]; after 120 min of incubation) was “above 90%” and the “use as alternate donor, rate” value [1] was “rates lower than with Neu5Ac”.

Compound `Nc1ccn([C@@H]2O[C@H](COP(=O)(O)OP(=O)(O)O)[C@@H](O)[C@H]2O)c(=O)n1` [CDP] has an inhibition at 1000 µM [2] of 40%.

In the case of `CC(=O)N[C@H]1[C@H](Oc2ccc(NC(=O)CCCCCNC(=O)c3ccc(-c4c5ccc(=O)cc-5oc5cc(O)ccc45)c(C(=O)O)c3)cc2)O[C@H](CO)[C@@H](O[C@@H]2O[C@H](CO)[C@H](O)[C@H](O)[C@H]2O)[C@@H]1O` [FCHASE-aminophenyl-LacNAc], the “ratios of activity as acceptor” value [3] is reported as 1.

For `O=S(=O)(O)c1cc(NC[C@H](O)[C@@H](O)[C@H](O)[C@H](O)CO[C@H]2O[C@H](CO)[C@H](O)[C@H](O)[C@H]2O)c2ccc3c(S(=O)(=O)O)cc(S(=O)(=O)O)c4ccc1c2c34` [Gal-α-(1→6)-Gal, Gal-α-(1→6)-Gal*], the “kcat IKm” value [4] was 517 M⁻¹ s⁻¹.

In the case of `CC(=O)N[C@H]1[C@H]([C@H](O)[C@H](O)CO)OC(O)(C(=O)O)C[C@@H]1O` (some centres unmarked) [Neu5Ac, 5-N-acetylneuraminic acid], the “time to complete conversion of the acceptor (FCHASE-LacNAc)” value [1] is reported as 60 min.

In the case of `Nc1ccn([C@@H]2O[C@H](COP(=O)(O)O)[C@@H](O)[C@H]2O)c(=O)n1` [CMP], the inhibition at 1000 µM [2] is reported as 80%.

In the case of `O=C(CCCCCNC(=O)c1ccc(-c2c3ccc(=O)cc-3oc3cc(O)ccc23)c(C(=O)O)c1)Nc1ccc(O[C@@H]2O[C@H](CO)[C@@H](O[C@@H]3O[C@H](CO)[C@H](O)[C@H](O)[C@H]3O)[C@H](O)[C@H]2O)cc1` [FCHASE-aminophenyl-Lac], the “ratios of activity as acceptor” value [3] is reported as 0.29.

For Triton X-100, the “effect of detergents on the enzyme” value ([3]; Triton X-100 up to 0.2%) was “exception”.

In the case of `[Cl][Mn][Cl]` [MnCl2], the “activity stimulated by presence” value ([2]; purified enzyme) is reported as 4 fold and the “activity stimulated by addition” value [3] is reported as 3 fold.

For `CC(=O)N[C@H]1[C@H](O[C@@H]([C@H](O)[C@H](CNc2cc(S(=O)(=O)O)c3ccc4c(S(=O)(=O)O)cc(S(=O)(=O)O)c5ccc2c3c54)NC(C)=O)[C@H](O)CO)O[C@H](CO)[C@@H](O[C@@H]2O[C@H](CO)[C@H](O)[C@H](O)[C@H]2O)[C@@H]1O` [LacNAc, Gal-β-(1→4)-β-GlcNAc-β-GlcNAc*], the “kcat IKm” value [4] was 1750 M⁻¹ s⁻¹ and the “increase of apparent Kcat/Km” value ([4]; relative to the terminal Gal-β monosaccharide acceptor) was 5 fold.

For `O=S(=O)(O)c1cc(NC[C@H](O)[C@@H](O)[C@H](O[C@@H]2O[C@H](CO)[C@H](O[C@H]3O[C@H](CO)[C@H](O)[C@H](O)[C@H]3O)[C@H](O)[C@H]2O)[C@H](O)CO)c2ccc3c(S(=O)(=O)O)cc(S(=O)(=O)O)c4ccc1c2c34` [P^k, Gal-α-(1→4)-Gal-(1→4)-β-Glc*], the “kcat IKm” value [4] was 93.3 M⁻¹ s⁻¹.

With `CC(=O)N[C@@H]1[C@@H](O)[C@H](O[C@@H]2O[C@H](CO)[C@H](O)[C@H](O)[C@H]2O)[C@@H](CO)O[C@H]1SCCCCCCNC(=O)CCCCCNC(=O)c1ccc(-c2c3ccc(=O)cc-3oc3cc(O)ccc23)c(C(=O)O)c1` [Gal-β-(1→4)-GlcNAc-β S AH-FCHASE] the “product formation with sulfur as the linkage atom” value [5] was “product formation”.

With `O=C(CCCCCNC(=O)c1ccc(-c2c3ccc(=O)cc-3oc3cc(O)ccc23)c(C(=O)O)c1)Nc1ccc(OC2O[C@H](CO)[C@H](O)[C@H](O)[C@H]2O)cc1` (some centres unmarked) [FCHASE-aminophenyl-Gal] the “ratios of activity as acceptor” value [3] was 0.03.

In the case of `CCC(=O)N[C@H]1[C@H]([C@H](O)[C@H](O)CO)OC(O)(C(=O)O)C[C@@H]1O` (some centres unmarked) [Neu5Pr, N-propionyl-Neuraminic Acid], the “use as alternate donor, rate” value [1] is reported as “rates lower than with Neu5Ac” and the “time to complete conversion of the acceptor (FCHASE-LacNAc)” value [1] is reported as 90 min.

For `[Cl-].[Cl-].[Mg+2]` [MgCl2], the “activity stimulated by presence” value ([2]; purified enzyme) was 3 fold and the “activity stimulated by addition” value [3] was 2 fold.

In the case of `O=S(=O)(O)c1cc(NC[C@H](O)[C@@H](O)[C@H](O[C@@H]2O[C@H](CO)[C@H](O)[C@H](O)[C@H]2O)[C@H](O)CO)c2ccc3c(S(=O)(=O)O)cc(S(=O)(=O)O)c4ccc1c2c34` [Gal-β-(1→4)-Glc, Gal-β-(1→4)-Glc*], the “kcat IKm” value [4] is reported as 367 M⁻¹ s⁻¹.

In the case of `O=C(CCCCCNC(=O)c1ccc(-c2c3ccc(=O)cc-3oc3cc(O)ccc23)c(C(=O)O)c1)NCCCCCCS[C@@H]1O[C@H](CO)[C@H](O)[C@H](O)[C@H]1O` [Gal-β S AH-FCHASE], the “product formation with sulfur as the linkage atom” value [5] is reported as “product formation”.

For `CC(=O)N[C@H]1[C@H]([C@H](O)[C@H](O)CO)O[C@](OP(=O)(O)OC[C@H]2O[C@@H](n3ccc(N)nc3=O)[C@H](O)[C@@H]2O)(C(=O)O)C[C@@H]1O` [CMP-Neu5Ac], the substrate inhibition ([4]; as high as 1 mM CMP-Neu5Ac) was “No significant substrate inhibition”.

With `O=C(O)CN(CCN(CC(=O)O)CC(=O)O)CC(=O)O` [EDTA] the “activity in the presence of EDTA” value ([2]; 5 mM EDTA, purified enzyme) was “still active” and the “activity in the presence of EDTA” value ([3]; 5 mM EDTA) was “active”.

With `O[C@H](CS)[C@H](O)CS` (racemic) [DTT, dithiothreitol] the “effect on the activity” value ([2]; 1-20 mM range) was “no effect”.
